Assay results reported in US6914045B2, “Glycopeptide antibiotics” (Wyeth Holdings Corporation, priority 2001, dated 2005).
Converted amounts (≈) assume the structure as drawn.

Columns and labels:
Experiment in all cases: in vitro antibacterial evaluation, MIC by broth dilution
Format in all cases: cell-based
[1] = system: Escherichia coli; details: 18 hours at 35° C.
Procedure, shortened: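 MIC = lowest antibiotic concentration preventing visible growth; inoculum 5×10^5 CFU/mL; drug range 64-0.06 μg/mL; Muller-Hinton II […]; NCCLS M7-A2 guidance.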

[2] = system: Enterococcus sp.; details: broth dilution, 18 hours at 35° C.
Procedure, shortened: (§1)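 Step 1: dilute antibiotic across 64-0.06 μg/mL in Muller-Hinton II […]. Step 2: inoculate at 5×10^5 CFU/mL.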

[3] = system: Staphylococcus sp.; details: broth dilution, 18 hours at 35° C.
Procedure, shortened: as §1

[4] = system: Streptococcus sp.; details: broth dilution, 18 hours at 35° C.
Procedure, shortened: as §1

[5] = Enterococcus faecalis (ATCC 29212)
[6] = Enterococcus faecalis (GC 4553)
[7] = Enterococcus faecalis (GC 4554)

CC(C)CC(=O)OC1C(OC2C(CO)OC(Oc3ccc(CC4NC(=O)C(C(C)c5ccc(F)cc5)NC(=O)CNC(=O)C(CO)NC(=O)C(C(O)C5CNC(=N)N5C5OC(CO)C(O)C(O)C5O)NC(=O)C(C(O)C5CNC(=N)N5)NC4=O)cc3)C(O)C2O)OC(CO)C(O)C1O (stereo not drawn) [Example 261b, Cyclo[glycyl-4-fluoro-β-methylphenylalanyl-O-[4-O-[2-O-(3-methylbutanoyl)hexopyranosyl]-hexopyranosyl]tyrosyl-3-(2-iminoimidazolidin-4-yl)seryl-3-(3-hexopyranosyl-2-imino-imidazolidin-4-yl)serylseryl]]
MIC Escherichia coli (ATCC 25922) ([1]; Escherichia coli (ATCC 25922)): >64 µg/mL
MIC Escherichia coli (GC 4559) ([1]; Escherichia coli (GC 4559)): >64 µg/mL
MIC Escherichia coli (GC 4560) ([1]; Escherichia coli (GC 4560)): 4 µg/mL (≈ 2.86 µM)
MIC Enterococcus avium (GC 4558) ([2]; Enterococcus avium (GC 4558)): 64 µg/mL (≈ 45.8 µM)
MIC Enterococcus faecalis (ATCC 29212) [2, 5]: >64 µg/mL
MIC Enterococcus faecalis (GC 4553) [2, 6]: 64 µg/mL (≈ 45.8 µM)
MIC Enterococcus faecalis (GC 4554) [2, 7]: >64 µg/mL
MIC Enterococcus faecium (GC 2243) ([2]; Enterococcus faecium (GC 2243)): >64 µg/mL
MIC Enterococcus faecium (GC 4556) ([2]; Enterococcus faecium (GC 4556)): 64 µg/mL (≈ 45.8 µM)
MIC Enterococcus faecium (GC 4557) ([2]; Enterococcus faecium (GC 4557)): 16 µg/mL (≈ 11.4 µM)
MIC Enterococcus faecalis (ATCC 29212) ([2]; strain ATCC 29212): >64 µg/mL
MIC Enterococcus faecalis (GC 2242) ([2]; strain GC 2242): 64 µg/mL (≈ 45.8 µM)
MIC Enterococcus faecium (GC 2243) ([2]; strain GC 2243): >64 µg/mL
MIC Enterococcus faecalis (GC 4552) ([2]; strain GC 4552): 64 µg/mL (≈ 45.8 µM)
MIC Enterococcus faecalis (GC 4553) ([2]; strain GC 4553): 64 µg/mL (≈ 45.8 µM)
MIC Enterococcus faecalis (GC 4554) ([2]; strain GC 4554): >64 µg/mL
MIC Enterococcus faecium (GC 4556) ([2]; strain GC 4556): 64 µg/mL (≈ 45.8 µM)
MIC Enterococcus faecium (GC 4557) ([2]; strain GC 4557): 16 µg/mL (≈ 11.4 µM)
MIC Enterococcus avium (GC 4558) ([2]; strain GC 4558): 64 µg/mL (≈ 45.8 µM)
MIC Coagulase Negative Staphylococcus (GC 4547) [3]: 8 µg/mL (≈ 5.72 µM)
MIC Coagulase Negative Staphylococcus (GC 4548) [3]: 4 µg/mL (≈ 2.86 µM)
MIC Coagulase Negative Staphylococcus (GC 4549) [3]: 4 µg/mL (≈ 2.86 µM)
MIC Coagulase Negative Staphylococcus (GC 4551) [3]: 8 µg/mL (≈ 5.72 µM)
MIC Staphylococcus aureus (ATCC 29213) [3]: 8 µg/mL (≈ 5.72 µM)
MIC Staphylococcus aureus (GC 1131) [3]: 16 µg/mL (≈ 11.4 µM)
MIC Staphylococcus aureus (GC 4541) [3]: 16 µg/mL (≈ 11.4 µM)
MIC Staphylococcus aureus (GC 4542) [3]: 16 µg/mL (≈ 11.4 µM)
MIC Staphylococcus aureus (GC 4544) [3]: 8 µg/mL (≈ 5.72 µM)
MIC Staphylococcus aureus (GC 4545) [3]: 16 µg/mL (≈ 11.4 µM)
MIC Staphylococcus aureus-SMITH (GC 4543) [3]: 8 µg/mL (≈ 5.72 µM)
MIC Staphylococcus haemolyticus (GC 4546) [3]: 8 µg/mL (≈ 5.72 µM)
MIC Staphylococcus aureus (ATCC 29213) ([3]; strain ATCC 29213): 8 µg/mL (≈ 5.72 µM)
MIC Staphylococcus aureus (GC 1131) ([3]; strain GC 1131): 16 µg/mL (≈ 11.4 µM)
MIC Staphylococcus aureus (GC 4541) ([3]; strain GC 4541): 16 µg/mL (≈ 11.4 µM)
MIC Staphylococcus aureus (GC 4542) ([3]; strain GC 4542): 16 µg/mL (≈ 11.4 µM)
MIC Staphylococcus aureus (GC 4544) ([3]; strain GC 4544): 8 µg/mL (≈ 5.72 µM)
MIC Staphylococcus aureus (GC 4545) ([3]; strain GC 4545): 16 µg/mL (≈ 11.4 µM)
MIC Streptococcus agalactiae (GC 4564) ([4]; strain GC 4564): 8 µg/mL (≈ 5.72 µM)
MIC Streptococcus pyogenes (ID-3187) ([4]; strain ID-3187): 4 µg/mL (≈ 2.86 µM)

CC(c1ccccc1)C1NC(=O)CNC(=O)C(CO)NC(=O)C(C(O)C2CNC(=N)N2C2OC(CO)C(O)C(O)C2O)NC(=O)C(C(O)C2CNC(=N)N2)NC(=O)C(Cc2ccc(OC3OC(CO)C(OC4OC5COC(c6ccsc6)OC5C(O)C4O)C(O)C3O)cc2)NC1=O (stereo not shown) [Example 133]
MIC Escherichia coli (ATCC 25922) ([1]; strain ATCC 25922): 64 µg/mL (≈ 46.1 µM)
MIC Escherichia coli (GC 4559) ([1]; strain GC 4559): 32 µg/mL (≈ 23 µM)
MIC Escherichia coli (GC 4560) ([1]; strain GC 4560): <0.5 µg/mL
MIC Enterococcus avium (GC 4558) ([2]; Enterococcus avium (GC 4558)): 8 µg/mL (≈ 5.76 µM)
MIC Enterococcus faecalis (ATCC 29212) [2, 5]: 8 µg/mL (≈ 5.76 µM)
MIC Enterococcus faecalis (GC 2242) ([2]; Enterococcus faecalis (GC 2242)): 4 µg/mL (≈ 2.88 µM)
MIC Enterococcus faecalis (GC 2691) ([2]; Enterococcus faecalis (GC 2691)): 8 µg/mL (≈ 5.76 µM)
MIC Enterococcus faecalis (GC 3059) ([2]; Enterococcus faecalis (GC 3059)): 8 µg/mL (≈ 5.76 µM)
MIC Enterococcus faecalis (GC 4552) ([2]; Enterococcus faecalis (GC 4552)): 8 µg/mL (≈ 5.76 µM)
MIC Enterococcus faecalis (GC 4553) [2, 6]: 8 µg/mL (≈ 5.76 µM)
MIC Enterococcus faecalis (GC 4554) [2, 7]: 8 µg/mL (≈ 5.76 µM)
MIC Enterococcus faecalis (GC 6189) ([2]; Enterococcus faecalis (GC 6189)): 4 µg/mL (≈ 2.88 µM)
MIC Enterococcus faecium (GC 2243) ([2]; Enterococcus faecium (GC 2243)): 8 µg/mL (≈ 5.76 µM)
MIC Enterococcus faecium (GC 4556) ([2]; Enterococcus faecium (GC 4556)): 8 µg/mL (≈ 5.76 µM)
MIC Enterococcus faecium (GC 4557) ([2]; Enterococcus faecium (GC 4557)): 2 µg/mL (≈ 1.44 µM)
MIC Enterococcus faecalis (ATCC 29212) ([2]; strain ATCC 29212): 8 µg/mL (≈ 5.76 µM)
MIC Enterococcus faecalis (GC 2242) ([2]; strain GC 2242): 4 µg/mL (≈ 2.88 µM)
MIC Enterococcus faecium (GC 2243) ([2]; strain GC 2243): 8 µg/mL (≈ 5.76 µM)
MIC Enterococcus faecalis (GC 2691) ([2]; strain GC 2691): 8 µg/mL (≈ 5.76 µM)
MIC Enterococcus faecalis (GC 3059) ([2]; strain GC 3059): 8 µg/mL (≈ 5.76 µM)
MIC Enterococcus faecalis (GC 4552) ([2]; strain GC 4552): 8 µg/mL (≈ 5.76 µM)
MIC Enterococcus faecalis (GC 4553) ([2]; strain GC 4553): 8 µg/mL (≈ 5.76 µM)
MIC Enterococcus faecalis (GC 4554) ([2]; strain GC 4554): 8 µg/mL (≈ 5.76 µM)
MIC Enterococcus faecium (GC 4556) ([2]; strain GC 4556): 8 µg/mL (≈ 5.76 µM)
MIC Enterococcus faecium (GC 4557) ([2]; strain GC 4557): 2 µg/mL (≈ 1.44 µM)
MIC Enterococcus avium (GC 4558) ([2]; strain GC 4558): 8 µg/mL (≈ 5.76 µM)
MIC Enterococcus faecalis (GC 6189) ([2]; strain GC 6189): 4 µg/mL (≈ 2.88 µM)
MIC Staphylococcus aureus (ATCC 29213) [3]: 1 µg/mL (≈ 0.72 µM)
MIC Staphylococcus aureus (GC 1131) [3]: 2 µg/mL (≈ 1.44 µM)
MIC Staphylococcus aureus (GC 3051) [3]: 1 µg/mL (≈ 0.72 µM)
MIC Staphylococcus aureus (GC 3053) [3]: 4 µg/mL (≈ 2.88 µM)
MIC Staphylococcus aureus (GC 4541) [3]: 1 µg/mL (≈ 0.72 µM)
MIC Staphylococcus aureus (GC 4542) [3]: 2 µg/mL (≈ 1.44 µM)
MIC Staphylococcus aureus (GC 4544) [3]: 2 µg/mL (≈ 1.44 µM)
MIC Staphylococcus aureus (GC 4545) [3]: 1 µg/mL (≈ 0.72 µM)
MIC Staphylococcus aureus (GC 1131) ([3]; inoculum 5×10^5 CFU/mL, strain GC 1131): 2 µg/mL (≈ 1.44 µM)
MIC Staphylococcus aureus (ATCC 29213) ([3]; strain ATCC 29213): 1 µg/mL (≈ 0.72 µM)
MIC Staphylococcus aureus (GC 3051) ([3]; strain GC 3051): 1 µg/mL (≈ 0.72 µM)
MIC Staphylococcus aureus (GC 3053) ([3]; strain GC 3053): 4 µg/mL (≈ 2.88 µM)
MIC Staphylococcus aureus (GC 4541) ([3]; strain GC 4541): 1 µg/mL (≈ 0.72 µM)
MIC Staphylococcus aureus (GC 4542) ([3]; strain GC 4542): 2 µg/mL (≈ 1.44 µM)
MIC Staphylococcus aureus-SMITH (GC 4543) ([3]; strain GC 4543): 1 µg/mL (≈ 0.72 µM)
MIC Staphylococcus aureus (GC 4544) ([3]; strain GC 4544): 2 µg/mL (≈ 1.44 µM)
MIC Staphylococcus aureus (GC 4545) ([3]; strain GC 4545): 1 µg/mL (≈ 0.72 µM)
MIC Staphylococcus haemolyticus (GC 4546) ([3]; strain GC 4546): 1 µg/mL (≈ 0.72 µM)
MIC Coagulase Negative Staphylococcus (GC 4547) ([3]; strain GC 4547): 1 µg/mL (≈ 0.72 µM)
MIC Coagulase Negative Staphylococcus (GC 4548) ([3]; strain GC 4548): <0.5 µg/mL
MIC Coagulase Negative Staphylococcus (GC 4549) ([3]; strain GC 4549): 1 µg/mL (≈ 0.72 µM)
MIC Coagulase Negative Staphylococcus (GC 4551) ([3]; strain GC 4551): 1 µg/mL (≈ 0.72 µM)
MIC Coagulase Negative Staphylococcus (GC 6257) ([3]; strain GC 6257): 1 µg/mL (≈ 0.72 µM)
MIC Staphylococcus aureus-SMITH (GC 4543) ([3]; strain SMITH GC 4543): 1 µg/mL (≈ 0.72 µM)
MIC Streptococcus agalactiae (GC 4564) ([4]; Streptococcus agalactiae (GC 4564)): <0.5 µg/mL
MIC Streptococcus pneumoniae (ATCC 6301) ([4]; Streptococcus pneumoniae (ATCC 6301)): <0.5 µg/mL
MIC Streptococcus pneumoniae (GC 1894) ([4]; Streptococcus pneumoniae (GC 1894)): <0.5 µg/mL
MIC Streptococcus pneumoniae (GC 4565) ([4]; Streptococcus pneumoniae (GC 4565)): 4 µg/mL (≈ 2.88 µM)
MIC Streptococcus pyogenes (GC 4563) ([4]; Streptococcus pyogenes (GC 4563)): <0.5 µg/mL
MIC Streptococcus pneumoniae (ATCC 6301) ([4]; strain ATCC 6301): <0.5 µg/mL
MIC Streptococcus pneumoniae (GC 1894) ([4]; strain GC 1894): <0.5 µg/mL
MIC Streptococcus pyogenes (GC 4563) ([4]; strain GC 4563): <0.5 µg/mL
MIC Streptococcus agalactiae (GC 4564) ([4]; strain GC 4564): <0.5 µg/mL
MIC Streptococcus pneumoniae (GC 4565) ([4]; strain GC 4565): 4 µg/mL (≈ 2.88 µM)
